The term Ki denotes a dissociation constant, usually derived from enzyme kinetics or from competition with a known ligand. A lower Ki goes with a stronger hold on the target.

The target in one experiment is T1, BRD4 (BDI_K57-E168) (Homo sapiens, UniProt O60885).
T1 construct: BD1: amino acids K57-E168; made in house
In words: TR-FRET bromodomain binding assay, first bromodomain of BRD4. The conditions noted are these: His-tagged BD1, 100 nM Alexa647 probe; TR-FRET protocol A-E given per row. In short, it runs like this: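 His-tagged BRD4 BD1 (K57-E168), 8 nM, with 1 nM Eu-anti-His antibody and 100 nM Alexa647-labelled BET-inhibitor probe in pH 6.0 phosphate buffer, 2% DMSO. TR-FRET read after 1 h at room temperature. IC50 from 4-parameter fit, converted to Ki using probe Kd and concentration.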

The next experiment deals with T2, BRD4 (BDII_E352-M457) (Homo sapiens, UniProt O60885).
T2 construct: proliferation; Protocol; made in house
In words: TR-FRET bromodomain binding assay, second bromodomain of BRD4. The settings on record: His-tagged BD2, 30 nM Alexa647 probe; TR-FRET protocol A-E given per row. In short, it runs like this: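 His-tagged BRD4 BD2 ([…]) competed against an Alexa647-labelled BET-inhibitor probe in TR-FRET. Buffer was 20 mM sodium phosphate pH 6.0, 50 mM NaCl, 1 mM EDTA, 0.01% Triton X-100, 1 mM DTT, with method D DMSO series of 2.5 mM–800 nM (stock range). IC50 from 4-parameter fit, Ki from probe Kd and concentration.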

For experiment [1], the system named is breast cancer cell line MX-1. In words: MX-1 cell line proliferation assay. Type of experiment: cell-based. The settings on record: Homo sapiens, MX1, 72 h, MX-1 cells, 3-day proliferation assay, Cell Titer Glo; read-out: Cellular proliferation EC50. In short, it runs like this:
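Cells seeded at 5000/well in RPMI 1640 with 10% FBS, allowed to adhere overnight at 37 °C, then exposed to compound at final 0.0001–3 μM for 3 days. Viability read by Cell Titer Glo luminescence, normalized to DMSO controls; EC50 from sigmoidal curve fit.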
(In general: Cellular ATP, detected with luciferase, serves as a proxy for viable cell number.)

On to `CCS(=O)(=O)Nc1ccc(Oc2ccc(F)cc2F)c(-c2cn(C)c3c(=O)[nH]c(C(=O)NCC4CCCC4)cc23)c1` [Example 195, N-(cyclopentylmethyl)-3-{2-(2,4-difluorophenoxy)-5-[(ethylsulfonyl)amino]phenyl}-1-methyl-7-oxo-6,7-dihydro-1H-pyrrolo[2,3-c]pyridine-5-c arboxamide], for which the values for the Ki on BRD4 (BDI_K57-E168) and on BRD4 (BDII_E352-M457) were 10.4 nM and 12.7 nM, respectively. Further, the EC50 in experiment [1] is 162 nM.
The matching figures for `CC(=O)Nc1ccc(C(=O)Nc2ccc(Oc3ccc(F)cc3F)c(-c3cn(C)c4c(=O)[nH]ccc34)c2)cc1` [Example 155, 4-(acetylamino)-N-[4-(2,4-difluorophenoxy)-3-(1-methyl-7-oxo-6,7-dihydro-1H-pyrrolo[2,3-c]pyridin-3-yl)phenyl]benzamide]: 27.8 nM, 163 nM and 310 nM.
The matching figures for `Cn1cc(-c2cc(S(C)(=O)=O)ccc2OCC(F)(F)C(F)(F)F)c2cc[nH]c(=O)c21` [Example 64, 1-methyl-3-[5-(methylsulfonyl)-2-(2,2,3,3,3-pentafluoropropoxy)phenyl]-1,6-dihydro-7H-pyrrolo[2,3-c]pyridin-7-one]: 36 nM, 57 nM and 84 nM.
Turning to `Cn1cc(-c2cc(NS(=O)(=O)Cc3cc(F)ccc3Cl)ccc2Oc2ccc(F)cc2F)c2cc[nH]c(=O)c21` [Example 181, 1-(2-chloro-5-fluorophenyl)-N-[4-(2,4-difluorophenoxy)-3-(1-methyl-7-oxo-6,7-dihydro-1H-pyrrolo[2,3-c]pyridin-3-yl)phenyl]methanesulfonamide], the results for the Ki on BRD4 (BDI_K57-E168) and at BRD4 (BDII_E352-M457) were 65.8 nM and 128 nM, respectively. Besides, the EC50 in experiment [1] was over 1000 nM.
In the case of `CCS(=O)(=O)Nc1ccc(OC2CCOCC2)c(-c2cn(C)c3c(=O)[nH]ccc23)c1` [Example 7, N-[3-(1-methyl-7-oxo-6,7-dihydro-1H-pyrrolo[2,3-c]pyridin-3-yl)-4-(tetrahydro-2H-pyran-4-yloxy)phenyl]ethanesulfonamide], the values for the inhibitory constant (Ki) at BRD4 (BDI_K57-E168) and on BRD4 (BDII_E352-M457) were 4 nM and 16 nM, respectively. Further, the EC50 in experiment [1] amounted to 93 nM.
On the same counts, the results for `Cn1cc(-c2cc(CNS(=O)(=O)Cc3ccc(C(F)(F)F)cc3)ccc2Oc2ccc(F)cc2F)c2cc[nH]c(=O)c21` [Example 133, N-[4-(2,4-difluorophenoxy)-3-(1-methyl-7-oxo-6,7-dihydro-1H-pyrrolo[2,3-c]pyridin-3-yl)benzyl]-1-[4-(trifluoromethyl)phenyl]methanesulfonamide] are 49 nM, 2680 nM and 1680 nM.
As for `CCS(=O)(=O)Nc1ccc(O[C@H]2CC[C@@H](OC)CC2)c(-c2cn(C)c3c(=O)[nH]ccc23)c1` [Example 9, N-{4-[(cis-4-methoxycyclohexyl)oxy]-3-(1-methyl-7-oxo-6,7-dihydro-1H-pyrrolo[2,3-c]pyridin-3-yl)phenyl}ethanesulfonamide], the Ki on BRD4 (BDI_K57-E168) is 12 nM; on BRD4 (BDII_E352-M457) it was 29 nM. The EC50 in experiment [1] was 128 nM.
On the same counts, the results for `CCS(=O)(=O)Nc1ccc(Oc2ccc(F)cc2F)c(-c2cn(C)c3c(=O)[nH]c(C(=O)NCCN4CCOCC4)cc23)c1` [Example 196, 3-{2-(2,4-difluorophenoxy)-5-[(ethylsulfonyl)amino]phenyl}-1-methyl-N-[2-(morpholin-4-yl)ethyl]-7-oxo-6,7-dihydro-1H-pyrrolo[2,3-c]pyridine-5-carboxamide] are 1.66 nM, 9.64 nM and 30.9 nM.
The matching figures for `CCS(=O)(=O)Nc1cnc(Oc2ccc(F)cc2F)c(-c2cn(C)c3c(=O)[nH]ccc23)c1` [Example 184, N-[6-(2,4-difluorophenoxy)-5-(1-methyl-7-oxo-6,7-dihydro-1H-pyrrolo[2,3-c]pyridin-3-yl)pyridin-3-yl]ethanesulfonamide]: 5.31 nM, 4.72 nM and 309 nM.

(Values after US9321764B2, “Dihydro-pyrrolopyridinone inhibitors” (AbbVie Inc., priority 2013, dated 2016).)
